Source: US20090130085A1, “Amidino-Compounds for Stabilizing Factor VII Polypeptide Formulations” (NOVO NORDISH HEALTHCARE AG, priority 2005, published 2009)

Biological target: T1, rhFVIIa (Homo sapiens, UniProt P08709)
T1 construct: Typically, Factor VII is cleaved between amino acid residues 152 and 153 to yield Factor VIIa
T1 sequence (P08709 61-212 limits assumed): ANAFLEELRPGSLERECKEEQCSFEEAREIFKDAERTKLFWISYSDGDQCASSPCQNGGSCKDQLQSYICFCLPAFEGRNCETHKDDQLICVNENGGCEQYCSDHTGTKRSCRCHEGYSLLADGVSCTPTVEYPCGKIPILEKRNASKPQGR
T1 sequence (P08709 213-466 limits assumed): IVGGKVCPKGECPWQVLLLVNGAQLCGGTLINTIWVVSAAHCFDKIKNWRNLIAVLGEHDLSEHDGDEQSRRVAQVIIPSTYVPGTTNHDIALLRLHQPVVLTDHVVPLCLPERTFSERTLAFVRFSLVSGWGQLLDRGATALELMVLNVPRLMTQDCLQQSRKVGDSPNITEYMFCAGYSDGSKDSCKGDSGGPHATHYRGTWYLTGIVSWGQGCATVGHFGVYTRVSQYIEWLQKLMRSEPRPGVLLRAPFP
Experiment: Clot assay / one-stage coagulation assay of stored rhFVIIa formulations
Type: biochemical
Settings: 1 mM compound in 1.0 mg/mL rhFVIIa formulation, pH 6.5, stored at 5° C. and 25° C.
Text: The biological activity of Factor VII (as Factor VIIa) in blood clotting derives from its ability to (i) bind to tissue factor (TF) and (ii) catalyze the proteolytic cleavage of Factor IX or Factor X to produce activated Factor IX or X (Factor IXa or Xa, respectively). Human Factor VIIa biological activity may be quantified by an assay measuring the ability of a preparation to promote blood clotting using Factor VII-deficient plasma and thromboplastin, as described, e.g., in U.S. Pat. No. 5,997,864. In this assay, biological activity is expressed as the reduction in clotting time relative to a control sample and is converted to “Factor VII units” by comparison with a pooled human […] standard containing 1 unit/ml Factor VII activity. […] Coagulation times (clotting times) are measured and compared to a standard curve using a reference standard in a parallel line assay. Alternatively, Factor VIIa biological activity may be quantified by (i) measuring the ability of Factor VIIa to produce Factor Xa in a system comprising TF embedded in a lipid membrane and Factor X. (Persson et al., J. Biol. Chem. 272:19919-19924, 1997); (ii) measuring Factor X hydrolysis in an aqueous system; (iii) measuring its physical binding to TF using an instrument based on surface plasmon resonance (Persson, FEBS Letts. 413:359-363, 1997) and (iv) measuring hydrolysis of a synthetic substrate. […]

COc1cccc([C@H](C)NC(=O)COC(=O)Nc2ccc(C(=N)N)cc2)c1 [Example 1, (S)-(4-carbamimidoylphenyl)carbamic acid [1-(3-methoxyphenyl)ethylcarbamoyl]methyl ester]
stabilizing effect with respect to retention of activity of FVIIa: marked stabilizing effect
